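Where inhibition never reached the appropriate level, the endpoint shown equals the highest concentration tested. Otherwise, values were interpolated linearly from a five-concentration, 48-hour dose response in 96-well plates. The concentration for 50% growth inhibition is given as GI50. TGI: total growth inhibition.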 A value given as a limit tells only on which side of the number the result lay.

Holding throughout (assay): NCI anticancer screen, dose series, 48 h
For experiment [1], the system named is SK-MEL-2 melanoma.
Experiment [2] concerns HOP-92 NSCLC.
In experiment [3] the test system is K-562 leukemia.
Experiment [4] relates to OVCAR-3 ovarian.
Experiment [5] relates to A549 NSCLC.
Experiment [6] concerns 786-0 renal.
Experiment [7] has as its system T-47D breast.

As to `Clc1ccccc1C(SCc1ccccc1)SCc1ccccc1`, the TGI in experiment [1], in experiment [2], in experiment [3], in experiment [4], in experiment [5] and in experiment [6] was more than 100 µM in each case.
As to `OC1CSSC1Cn1cnc2c(Nc3ccc(OCc4cccc(F)c4)c(Cl)c3)ncnc21` (stereo unspecified), the GI50 in experiment [1] is 0.997 µM; in experiment [7], 1.3 µM; in experiment [2], 8.97 µM; in experiment [3] it was 0.604 µM; in experiment [4] it was 0.748 µM; in experiment [5], 0.742 µM. Also, in experiment [6], the GI50 is 5.67 µM. The TGI in experiment [1] was 3.26 µM; in experiment [7] it was 8.4 µM; in experiment [2], 23 µM; in experiment [3], 1.5 µM; in experiment [4], 1.93 µM; in experiment [5], 1.88 µM. Moreover, the TGI in experiment [6] was 11.9 µM.
`Fc1[nH]nc2ccc([C@@H]3Nc4ccc5[nH]ncc5c4[C@H]4C5CCC(C5)[C@@H]34)cc12` (stereo partly specified): the GI50 in experiment [1] is 0.913 µM; in experiment [7], 0.436 µM; in experiment [2], 2 µM; in experiment [3], 0.324 µM; in experiment [4], 0.39 µM; in experiment [5] it was 1.03 µM. Further, the GI50 in experiment [6] was 2.82 µM. Also, the TGI in experiment [1] was 12.2 µM; in experiment [7], 12.9 µM; in experiment [2], 14.2 µM; in experiment [3] it was 13.9 µM; in experiment [4], 2.97 µM; in experiment [5] it was 12.1 µM. The compound further displayed a TGI in experiment [6] of 15.6 µM.
Consider `FC(F)(F)c1cccc(Nc2nc(-c3ccccc3)nc3ncccc23)c1`, for which the GI50 in experiment [1] is 6.57 µM; in experiment [7], 3.53 µM; in experiment [2], 4.65 µM; in experiment [3], 3.17 µM; in experiment [4] it was 5.2 µM; in experiment [6] it was 2.51 µM. Further, the TGI turned out to be 25.5 µM in experiment [1]; 15.2 µM in experiment [7]; 18 µM in experiment [2]; 17.9 µM in experiment [3]; 28 µM in experiment [4]; 6.51 µM in experiment [6].
Take `NC(N)=NS(=O)(=O)c1ccc(Nc2c3ccccc3nc3c(C(=O)NCCO)cccc23)cc1`: the GI50 in experiment [1] is 26.6 µM; in experiment [7], 11 µM; in experiment [3] it was 35.1 µM; in experiment [4] it was 17.1 µM; in experiment [5], 20.1 µM; in experiment [6], 21 µM. Further, the TGI in experiment [2] stood at 0.747 µM.
`Cc1ccc(Cl)c2c(N=Nc3ccccc3[N+](=O)[O-])c(O)[nH]c12`: the TGI in experiment [1], in experiment [7], in experiment [2], in experiment [3], in experiment [4] and in experiment [5] was more than 100 µM throughout. Besides, in experiment [6], the TGI is more than 100 µM.
With `COC1/C=C/OC2(C)Oc3c(C)c(O)c4c(O)c(c(/C=N/Nc5ccc([N+](=O)[O-])cc5[N+](=O)[O-])c(O)c4c3C2=O)NC(=O)C(C)=C/C=C/C(C)C(O)C(C)C(O)C(C)C(OC(C)=O)C1C` (stereo unspecified), the GI50 in experiment [7] is 2.07 µM; in experiment [2], 0.885 µM; in experiment [4], 1.1 µM; in experiment [5] it was 8.01 µM; in experiment [6] it was 1.67 µM. Also, the TGI in experiment [7] was more than 50 µM; in experiment [2], 2.04 µM; in experiment [4], 2.52 µM; in experiment [5] it was 17.3 µM; in experiment [6], 7.02 µM.
On to `COc1cc2c(cc1OCCCCN1CCN(CC(=O)Nc3ccc(Cl)cc3C(=O)c3ccccc3Cl)CC1)N=CC1CCCN1C2=O` (stereo unspecified), for which the GI50 is 0.288 µM in experiment [1]; 0.0982 µM in experiment [2]; 0.208 µM in experiment [3]; 0.197 µM in experiment [4]; 0.205 µM in experiment [6]. The TGI amounted to 0.869 µM in experiment [1]; 0.298 µM in experiment [2]; 2.82 µM in experiment [3]; 0.435 µM in experiment [4]; 0.456 µM in experiment [6].
On to `CCN(CC)N=Nc1c(C(N)=O)n[nH]c1C`, for which the TGI in experiment [1] was more than 100 µM; in experiment [7], more than 100 µM; in experiment [2] it was 87.8 µM; in experiment [4], more than 100 µM; in experiment [5] it was more than 100 µM; in experiment [6] it was more than 100 µM.
With `COC(CCC[N+](C)(C)C)CC[N+](C)(C)C` (stereo unspecified), the TGI in experiment [3], in experiment [4], in experiment [5] and in experiment [6] was more than 100 µM each time.
On to `Cc1ccsc1C(=S)Nc1ccc(Cl)c(/C=N/OC(C)(C)C)c1`, for which the TGI in experiment [1] is more than 100 µM; in experiment [7] it was more than 100 µM; in experiment [2], 48.8 µM; in experiment [4], more than 100 µM; in experiment [5], more than 100 µM; in experiment [6], 57.2 µM.
Take `Nc1nc(-n2c(-c3ccccc3)nc3c(Br)cc(Br)cc3c2=O)nnc1-c1cccc(Cl)c1Cl`: the GI50 is 83.8 µM in experiment [1]; more than 100 µM in experiment [7]; 38.5 µM in experiment [2]; 4.7 µM in experiment [3]; 6.84 µM in experiment [4]; 7.41 µM in experiment [5]. Besides, the GI50 in experiment [6] was 11.2 µM. The TGI in experiment [1] is more than 100 µM; in experiment [7], more than 100 µM; in experiment [2], more than 100 µM; in experiment [3] it was 7.66 µM; in experiment [4] it was 53.6 µM; in experiment [5], more than 100 µM. Besides, the TGI in experiment [6] was 60.7 µM.
On to `COC([CH2][Hg][n]1cnc2c1c(=O)n(C)c(=O)n2C)CN1C(=O)c2ccccc2S1(=O)=O` (stereo unspecified), for which the GI50 in experiment [1], in experiment [7], in experiment [2], in experiment [3], in experiment [4] and in experiment [5] was more than 100 µM in each case. For the same compound, the GI50 in experiment [6] was more than 100 µM. Besides, the TGI in experiment [1], in experiment [7], in experiment [2], in experiment [3], in experiment [4] and in experiment [5] was more than 100 µM each time. The TGI in experiment [6] was more than 100 µM.
Turning to `C=CCOc1ccc2c(C)cc(=O)oc2c1C`, the TGI in experiment [1], in experiment [7], in experiment [2], in experiment [3], in experiment [4] and in experiment [5] was more than 100 µM in each case. The compound also gave a TGI in experiment [6] of more than 100 µM.

The values above are taken from PubChem BioAssay (NCI).
